According to publication PMC10974533, “Cationicity Enhancement on the Hydrophilic Face of Ctriporin Significantly Reduces Its Hemolytic Activity and Improves the Antimicrobial Activity against Antibiotic-Resistant ESKAPE Pathogens” (Toxins, 2024):
Where a SMILES comes first, the peptide text is derived from it.

Legend:
A. baumannii 19462 = assay: MIC, broth dilution, clinical isolate; type: cell-based; settings: CRE/MDR clinical isolate
Method: (§1) The standard strains, including S. aureus ATCC29213 and ATCC25923, E. faecalis ATCC29212, E. coli ATCC25922 and ATCC35218, A. baumannii ATCC19606, K. pneumoniae ATCC700603, and P. aeruginosa ATCC27853, were purchased from the China Center of Type Culture Collection (CCTCC). The clinical strains of the ESKAPE pathogens were isolated from the affiliated hospitals of Hubei University of Medicine. All of them were stored at −80 °C before use. The drug sensitivities of the clinical strains were determined by the Kirby–Bauer test.
(§2) The MICs were determined using the broth dilution method according to the guidelines of the Clinical and Laboratory Standards Institute (CLSI), as described in the previous studies. Briefly, the bacterial cells were incubated in Mueller–Hinton broth (MHB, Oxoid, Basingstoke, UK) at 37 °C and 150 rpm to the mid-growth phase and diluted to achieve a final concentration of 5 × 10^5 colony-forming units per milliliter (CFU/mL). Then, the cells were mixed with each peptide in different concentrations (1, 2, 4, 8, 16, 32, and 64 μg/mL). […] All experiments were repeated at least three times.

P. aeruginosa 9014 = assay: MIC, broth dilution, clinical isolate; type: cell-based; settings: CRE/MDR clinical isolate
Method: as §1, §2

S. epidermidis 9092 = assay: MIC, broth dilution, clinical isolate; type: cell-based; settings: MRSE clinical isolate
Method: as §1, §2

standard ESKAPE strains = type: cell-based; settings: broth dilution (CLSI), MHB
Method: The ESKAPE pathogens represent the main threat to public health concerning antimicrobial resistance. Therefore, we first evaluated the antimicrobial activities of Ctriporin and its analogs against the standard ESKAPE strains. The minimum inhibitory concentration (MIC) was chosen as the index for the evaluation of each peptide’s activity. […] Note that the MICs of CM4 and CM7 are 4–32 and 8–32 μg/mL, respectively, indicating the existence of significant bacterial species deviations for the antimicrobial activity of these peptides. In addition, the replacement of specific residues, especially Pro^7, may harm the antimicrobial activities of the peptide.
as §1, §2

[1] = test system: carbapenem-resistant (CRE) A. baumannii; settings: cited from earlier work
Source text: A wealth of CαAMPs have been identified from the venom glands of various scorpion species. Among these peptides, the members of short cationic AMP family are a group of cationic α-helical peptides with 17 to 19 residues, including Ctriporin [17], Mucroporin [18], Imcroporin [19], Stigmurin [20], TsAP-1 and TsAP-2 [21], AamAP1 and AamAP2 [22], and BmKb1 and BmKb2 [23]. Some peptides from this family were reported to show antimicrobial activity against methicillin-resistant S. aureus. We identified Lausporin-2 from the venom of Liocheles au ...

[2] = broth dilution (CLSI), MHB, 5 × 10^5 CFU/mL, 37 °C, 16–20 h, OD630

In the case of `CC[C@H](C)[C@H](NC(=O)[C@H](C)NC(=O)CNC(=O)[C@@H]1CCCN1C(=O)[C@@H](NC(=O)[C@H](CC(C)C)NC(=O)CNC(=O)[C@H](Cc1c[nH]c2ccccc12)NC(=O)[C@H](CC(C)C)NC(=O)[C@@H](N)Cc1ccccc1)[C@@H](C)CC)C(=O)N[C@@H](CO)C(=O)N[C@@H](C)C(=O)N[C@H](C(=O)N[C@H](C(=O)N[C@@H](CO)C(=O)N[C@@H](CC(C)C)C(=O)N[C@H](C(=O)N[C@@H](CCCCN)C(=O)N[C@@H](CCCCN)C(N)=O)[C@@H](C)CC)[C@@H](C)O)C(C)C` [Ctriporin] (H-FLWGLIPGAISAVTSLIKK-NH2; N-terminus assumed), the MICs (A. baumannii 19462; [2]) is reported as 16 µg/mL, the “MICs” value (A. baumannii 19462; value in parentheses) is reported as 8.0 µM and the MICs (P. aeruginosa 9014; [2]) is reported as greater than 64 µg/mL. For the same compound, the “MICs” value (P. aeruginosa 9014; value in parentheses) was greater than 31.8 µM, the MICs (S. epidermidis 9092; [2]) was 8 µg/mL and the “MICs” value (S. epidermidis 9092; value in parentheses) was 4.0 µM. The “MICs against S. aureus and A. baumannii” value (standard ESKAPE strains; standard strains of S. aureus and A. baumannii) was 16 to 32 µg/mL, the “MICs for other tested bacterial species” value (standard ESKAPE strains; standard strains other than S. aureus and A. baumannii) was no less than 64 µg/mL and the “antimicrobial activity against carbapenem-resistant (CRE) A. baumannii” value [1] was “moderate antimicrobial activity”.
